The values that follow come from patent publication US10112941B2, “Tricyclic compounds as anticancer agents” (BRISTOL-MYERS SQUIBB COMPANY, priority 2013, dated 2018).

Broadly, the IC50 is the concentration that inhibits the measured activity by half.

This assay deals with BRD4 (Homo sapiens, UniProt O60885). Kind of assay: Time Resolved Fluorescence Resonance Energy Transfer (TR-FRET) binding assay, BRD4. The following applies: one of the FRET assays described; read-out: FRET BRD4 IC50. For orientation: TR-FRET usually uses a lanthanide donor and a delayed reading to cut background.

Molecules are shown by their SMILES.

`Cc1nnn(C)c1-c1cnc2c3ccc(C(C)(C)O)cc3n([C@@H](c3ccccn3)C3CCOCC3)c2c1` [Example 63]: the IC50 is less than 25 nM. As for `[2H]C([2H])([2H])c1nnn(C)c1-c1cnc2c3c(NS(=O)(=O)CC(F)(F)F)ccc(S(C)(=O)=O)c3n([C@H](c3ccccc3)C3CCOCC3)c2c1` [Example 228, 2,2,2-Trifluoro-N-{6-methanesulfonyl-3-[4-(^2H3)methyl-1-methyl-1H-1,2,3-triazol-5-yl]-5-[(S)-oxan-4-yl(phenyl)methyl]-5H-pyrido[3,2-b]indol-9-yl}ethane-1-sulfonamide], the IC50 was less than 5 nM.

In the case of `COc1ccc(C(C2CCOCC2)n2c3cc(C(C)(C)O)ccc3c3ncc(-c4c(C)nnn4C)cc32)cc1` (single isomer, unassigned) [Example 250, 2-[3-(Dimethyl-1H-1,2,3-triazol-5-yl)-5-[(4-methoxyphenyl)(oxan-4-yl)methyl]-5H-pyrido[3,2-b]indol-7-yl]propan-2-ol], the half-maximal inhibitory concentration (IC50) is less than 25 nM.

On to `COC(=O)Nc1ccc2c3ncc(-c4c(C)nnn4C)cc3n([C@H](c3ccccc3)C3CCOCC3)c2c1` [Example 365, Methyl N-[3-(dimethyl-1H-1,2,3-triazol-5-yl)-5-[(S)-oxan-4-yl(phenyl)methyl]-5H-pyrido[3,2-b]indol-7-yl]carbamate], for which the IC50 was less than 5 nM.

`Cc1nocc1-c1cnc2c3ccc(C(C)(C)O)cc3n(C(c3ccc(F)cc3)C3CCOCC3)c2c1` (single isomer, unassigned) [Example 42, 2-{5-[(4-Fluorophenyl)(oxan-4-yl)methyl]-3-(3-methyl-1,2-oxazol-4-yl)-5H-pyrido[3,2-b]indol-7-yl}propan-2-ol]: the IC50 is less than 25 nM.

As to `[2H]C([2H])([2H])c1nnn(C)c1-c1cnc2c3ccc(C(C)(C)O)cc3n(C(c3ncccc3C(F)(F)F)C3CCOCC3)c2c1` (single isomer, unassigned) [Example 318], the IC50 is less than 5 nM. On to `Cc1noc(C)c1-c1cnc2c3ccc(C(C)(C)O)cc3n(C(c3ccccc3)C3CCC(F)(F)CC3)c2c1` (single isomer, unassigned) [Example 27, 2-{5-[(4,4-Difluorocyclohexyl)(phenyl)methyl]-3-(dimethyl-1,2-oxazol-4-yl)-5H-pyrido[3,2-b]indol-7-yl}propan-2-ol], for which the IC50 is less than 5 nM.

As to `[2H]C([2H])([2H])c1nnn(C)c1-c1cnc2c3c(OC)cc(S(C)(=O)=O)cc3n(C(c3ncccc3F)C3CCC(F)(F)CC3)c2c1` (single isomer, unassigned) [Example 214, 2-[(4,4-Difluorocyclohexyl)({7-methanesulfonyl-9-methoxy-3-[4-(^2H3)methyl-1-methyl-1H-1,2,3-triazol-5-yl]-5H-pyrido[3,2-b]indol-5-yl})methyl]-3-fluoropyridine], the IC50 was less than 5 nM. Take `COC(=O)NC(C)(C)c1ccc2c3ncc(-c4c(C)nnn4C)cc3n([C@H](c3ccccc3)C3CCOCC3)c2c1` [Example 412, Methyl N-{2-[3-(dimethyl-1H-1,2,3-triazol-5-yl)-5-[(S)-oxan-4-yl(phenyl)methyl]-5H-pyrido[3,2-b]indol-7-yl]propan-2-yl}carbamate]: the IC50 is less than 5 nM. Take `COc1cc(C(C)(C)O)cc2c1c1ncc(-c3c(C)nnn3C)cc1n2[C@H](c1ccccc1F)C1CCOCC1` [Example 274]: the IC50 is less than 5 nM. Turning to `[2H]C([2H])([2H])c1nnn(C)c1-c1cnc2c3ccc(C(C)(C)O)cc3n(C(c3ccc(Cl)cn3)C3CCOCC3)c2c1` (single isomer, unassigned) [Example 320], the IC50 is less than 5 nM. In the case of `Cc1nnn(C)c1-c1cnc2c3ccc(C(C)(C)O)cc3n(C(c3cccc(Cl)c3)C3CCOCC3)c2c1` (single isomer, unassigned) [Example 401], the IC50 was less than 5 nM. Consider `[2H]C([2H])([2H])c1nnn(C)c1-c1cnc2c3cc(F)c(C(C)(C)O)cc3n([C@H](c3ccc(F)cc3)C3CCOCC3)c2c1` [Example 277, 2-{8-Fluoro-5-[(S)-(4-fluorophenyl)(oxan-4-yl)methyl]-3-[4-(^2H3)methyl-1-methyl-1H-1,2,3-triazol-5-yl]-5H-pyrido[3,2-b]indol-7-yl}propan-2-ol], for which the IC50 is less than 5 nM.

As for `COc1cc(C(C)(C)O)cc2c1c1ncc(-c3c(C)nnn3C)cc1n2C(c1ccccc1F)C1CCOCC1` (single isomer, unassigned) [Example 138, 2-[3-(Dimethyl-1H-1,2,3-triazol-5-yl)-5-[(2-fluorophenyl)(oxan-4-yl)methyl]-9-methoxy-5H-pyrido[3,2-b]indol-7-yl]propan-2-ol], the IC50 is less than 5 nM.

`Cc1nnn(C)c1-c1cnc2c3ccc(C(C)(O)C(F)(F)F)c(F)c3n([C@H](c3ccccc3)C3CCOCC3)c2c1` (single isomer, unassigned) [Example 441]: the IC50 was less than 5 nM.

In the case of `Cc1noc(C)c1-c1cnc2c3ccc(S(C)(=O)=O)cc3n([C@H](c3ccccc3F)C3CCOCC3)c2c1` [Example 173], the half-maximal inhibitory concentration (IC50) is less than 5 nM. In the case of `Cc1nocc1-c1cnc2c3ccc(C(C)(C)O)cc3n(C(c3ccc(F)cc3)C3CCOCC3)c2c1` (single isomer, unassigned) [Example 43, 2-{5-[(4-Fluorophenyl)(oxan-4-yl)methyl]-3-(3-methyl-1,2-oxazol-4-yl)-5H-pyrido[3,2-b]indol-7-yl}propan-2-ol], the IC50 is less than 1500 nM.

For the compound `COc1cc2c3ncc(-c4c(C)nnn4C)cc3n([C@H](c3ccccc3)C3CCOCC3)c2cc1C(C)(C)O` [Example 354, 2-[3-(Dimethyl-1H-1,2,3-triazol-5-yl)-8-methoxy-5-[(S)-oxan-4-yl(phenyl)methyl]-5H-pyrido[3,2-b]indol-7-yl]propan-2-ol], the IC50 is less than 5 nM. On to `Cc1noc(C)c1-c1cnc2c3ccc(C(C)(C)O)cc3n(C(c3cc(F)cc(F)c3)C3CCOCC3)c2c1` (single isomer, unassigned) [Example 129, 2-{5-[(3,5-Difluorophenyl)(oxan-4-yl)methyl]-3-(dimethyl-1,2-oxazol-4-yl)-5H-pyrido[3,2-b]indol-7-yl}propan-2-ol], for which the IC50 was less than 1500 nM. Take `Cc1nnn(C)c1-c1cnc2c3ccc(C(C)(C)O)cc3n(C(c3c(F)cc(F)cc3F)C3CCOCC3)c2c1` (single isomer, unassigned) [Example 103, 2-[3-(Dimethyl-1H-1,2,3-triazol-5-yl)-5-[oxan-4-yl(2,4,6-trifluorophenyl)methyl]-5H-pyrido[3,2-b]indol-7-yl]propan-2-ol]: the half-inhibitory concentration (IC50) was less than 5 nM.

`Cc1noc(C)c1-c1cnc2c3ccc(C(C)(C)O)cc3n(C(c3ccc(F)c(F)c3)C3CCOCC3)c2c1` (single isomer, unassigned) [Example 141, 2-{5-[(3,4-Difluorophenyl)(oxan-4-yl)methyl]-3-(dimethyl-1,2-oxazol-4-yl)-5H-pyrido[3,2-b]indol-7-yl}propan-2-ol]: the IC50 is less than 25 nM.

Regarding `Cc1sc(=O)n(C)c1-c1cnc2c3ccc(C(C)(C)O)cc3n(C(c3ccccc3)C3CCOCC3)c2c1` (single isomer, unassigned) [Example 170, 4-[7-(2-Hydroxypropan-2-yl)-5-[oxan-4-yl(phenyl)methyl]-5H-pyrido[3,2-b]indol-3-yl]-3,5-dimethyl-2,3-dihydro-1,3-thiazol-2-one], the IC50 was less than 1500 nM. Consider `Cc1nnn(C)c1-c1cnc2c3c(S(C)(=O)=O)cccc3n(C(CCC(F)(F)F)c3ccccn3)c2c1` (single isomer, unassigned) [Example 258, 2-{1-[3-(Dimethyl-1H-1,2,3-triazol-5-yl)-9-methanesulfonyl-5H-pyrido[3,2-b]indol-5-yl]-4,4,4-trifluorobutyl}pyridine], for which the IC50 was less than 5 nM.

In the case of `Cc1nnn(C)c1-c1cnc2c3ccc(S(C)(=O)=O)cc3n([C@H](c3ccc(F)cc3)C3CCOCC3)c2c1` [Example 178, 5-{5-[(S)-(4-Fluorophenyl)(oxan-4-yl)methyl]-7-methanesulfonyl-5H-pyrido[3,2-b]indol-3-yl}-1,4-dimethyl-1H-1,2,3-triazole], the 50% inhibitory concentration (IC50) was less than 5 nM. On to `Cc1noc(C)c1-c1cnc2c3ccc(C(O)CC#N)cc3n([C@H](c3ccccc3)C3CCOCC3)c2c1` (single isomer, unassigned) [Example 373], for which the IC50 is less than 5 nM. Regarding `Cc1nnn(C)c1-c1cnc2c3cc(F)c(C(C)(C)O)cc3n(C(c3ccc(F)cc3)C3CCOCC3)c2c1` (single isomer, unassigned) [Example 79, 2-[3-(Dimethyl-1H-1,2,3-triazol-5-yl)-8-fluoro-5-[(4-fluorophenyl)(oxan-4-yl)methyl]-5H-pyrido[3,2-b]indol-7-yl]propan-2-ol], the IC50 was less than 25 nM. With `[2H]C([2H])([2H])c1nnn(C)c1-c1cnc2c3ccc(S(C)(=O)=O)cc3n(C(c3ccccc3)C3CCC(F)(F)CC3)c2c1` (stereo not shown) [Example 159, 5-{5-[(4,4-Difluorocyclohexyl)(phenyl)methyl]-7-methanesulfonyl-5H-pyrido[3,2-b]indol-3-yl}-4-(^2H3)methyl-1-methyl-1H-1,2,3-triazole], the IC50 was less than 5 nM. On to `Cc1noc(C)c1-c1cnc2c3ccc(C(C)(C)O)cc3n(C(c3ncccc3F)C3CCOCC3)c2c1` (single isomer, unassigned) [Example 346, 2-[3-(Dimethyl-1,2-oxazol-4-yl)-5-[(3-fluoropyridin-2-yl)(oxan-4-yl)methyl]-5H-pyrido[3,2-b]indol-7-yl]propan-2-ol], for which the IC50 is less than 5 nM. Then `Cc1nnn(C)c1-c1cnc2c3ccc(C(C)(C)O)cc3n(C(c3ccc(Cl)cc3)C3CCOCC3)c2c1` (single isomer, unassigned) [Example 398], with less than 5 nM. The result for `Cc1oncc1-c1cnc2c3ccc(C(C)(C)O)cc3n(C(c3ccc(F)cc3)C3CCOCC3)c2c1` (single isomer, unassigned) [Example 41, 2-{5-[(4-Fluorophenyl)(oxan-4-yl)methyl]-3-(5-methyl-1,2-oxazol-4-yl)-5H-pyrido[3,2-b]indol-7-yl}propan-2-ol] reads less than 1500 nM. Regarding `Cc1nnn(C)c1-c1cnc2c3ccc(C(C)(C)O)cc3n(C(c3ccccc3Cl)C3CCOCC3)c2c1` (single isomer, unassigned) [Example 402], the IC50 was less than 5 nM.
